Converted amounts (≈) assume the structure as drawn. Read-outs that look alike come from different tables or passages of the source.
Assays:
Assay type in all cases: cell-based
M. suipneumoniae JF 435 = assay: Anti-mycoplasmal MIC in vitro, Friis broth agarose (Table 1); conditions: Mesomycoplasma hyopneumoniae, JF435, 144 h
M. suipneumoniae HR(2) = assay: as above; conditions: Mesomycoplasma hyopneumoniae, 144 h
[1] = system: M. suipneumoniae PW/C/210; assay: as above; conditions: Mesomycoplasma hyopneumoniae, 144 h
M. suipneumoniae OCD 1 = assay: as above; conditions: Mesomycoplasma hyopneumoniae, OCD1, 144 h
[2] = system: M. suipneumoniae ATCC 25095; assay: as above; conditions: Mesomycoplasma hyopneumoniae, ATCC25095, 144 h
[3] = system: M. suipneumoniae NCTC 10110; assay: as above; conditions: Mesomycoplasma hyopneumoniae, NCTC10110, 144 h
M. hyorhinis ATCC 25021 = assay: as above; conditions: Mesomycoplasma hyorhinis, ATCC25021, 144 h
[4] = system: M. hyosynoviae ATOC 25591; assay: as above; conditions: 144 h
M. bovis RCTC 10131 = assay: microbe, parasite or virus in culture; conditions: RCTC10131, 144 h
E. Coli E1 = assay: Veterinary bacteria MIC, Diagnostic Sensitivity Test Agar (Table 2); conditions: Escherichia coli
Procedure: The values were determined using a two fold serial dilutions in Diagnostic Sensitivity Test Agar with an inoculum of 10^4 organisms and incubation for 18 hours at 37° C.

Bacillus subtilis 6633 = assay: Human bacteria MIC, nutrient agar with chocolated horse blood (Table 3)
Procedure: (§1) The values were determined by serial dilutions in nutrient agar with 5% chocolated horse blood after incubations for 18 hours at 37° C.

[5] = system: Corynebacterium xerosis 9755; assay: as above
Procedure: as §1

E. Coli NCTC 10418 = assay: as above; conditions: Escherichia coli
Procedure: as §1

E. coli ESS = assay: as above; conditions: Escherichia coli
Procedure: as §1

[6] = system: Haemophilus influenzae Q1; assay: as above; conditions: Haemophilus influenzae Q1; nutrient agar 5% chocolated horse blood, 18 hours 37° C.; read-out: MIC
Procedure: as §1

K. aerogenes A = assay: as above; conditions: Klebsiella aerogenes
Procedure: as §1

[7] = system: Neisseria catarrhalis 1502; assay: as above
Procedure: as §1

P. mirabilis 889 = assay: as above
Procedure: as §1

[8] = system: Pasteurella multocida 1633; assay: as above; conditions: Pasteurella multocida 1633; nutrient agar 5% chocolated horse blood, 18 hours 37° C.; read-out: MIC
Procedure: as §1

[9] = system: Ps. aeruginosa NCTC 10662; assay: as above; conditions: Pseudomonas aeruginosa
Procedure: as §1

Sarcina lutea 8340 = assay: as above
Procedure: as §1

Staph. aureus Oxford = assay: as above; conditions: Staphylococcus aureus
Procedure: as §1

Staph. aureus Russell = assay: as above; conditions: Staphylococcus aureus
Procedure: as §1

Staph. aureus W2827 = assay: as above; conditions: Staphylococcus aureus
Procedure: as §1

Strep. faecalis 1 = assay: as above; conditions: Enterococcus faecalis; Strep. faecalis 1; nutrient agar 5% chocolated horse blood, 18 hours 37° C.; read-out: MIC
Procedure: as §1

[10] = system: Strep. pyogenes R80/421-A; assay: as above; conditions: Streptococcus pyogenes; Strep. pyogenes R80/421-A; nutrient agar 5% chocolated horse blood, 18 hours 37° C.; read-out: MIC
Procedure: as §1

Strep. pneumoniae CN33 = assay: as above; conditions: Streptococcus pneumoniae; Strep. pneumoniae CN33; nutrient agar 5% chocolated horse blood, 18 hours 37° C.; read-out: MIC
Procedure: as §1

M. pneumoniae ATCC 15492 = assay: Anti-mycoplasmal MIC in vitro, Friis broth agarose (Table 1); conditions: Mycoplasmoides pneumoniae, ATCC15492, 144 h
[11] = Bacillus subtilis 6633, nutrient agar 5% chocolated horse blood, 18 hours 37° C., read-out: MIC
[12] = Corynebacterium xerosis 9755, nutrient agar 5% chocolated horse blood, 18 hours 37° C., read-out: MIC
[13] = NCTC10418, E. coli NCTC 10418, nutrient agar 5% chocolated horse blood, 18 hours 37° C., read-out: MIC
[14] = K. aerogenes A, nutrient agar 5% chocolated horse blood, 18 hours 37° C., read-out: MIC
[15] = Neisseria catarrhalis 1502, nutrient agar 5% chocolated horse blood, 18 hours 37° C., read-out: MIC
[16] = Proteus mirabilis, P. mirabilis 889, nutrient agar 5% chocolated horse blood, 18 hours 37° C., read-out: MIC
[17] = NCTC10662, Ps. aeruginosa NCTC 10662, nutrient agar 5% chocolated horse blood, 18 hours 37° C., read-out: MIC
[18] = Micrococcus luteus, Sarcina lutea 8340, nutrient agar 5% chocolated horse blood, 18 hours 37° C., read-out: MIC
[19] = Staph. aureus Oxford, nutrient agar 5% chocolated horse blood, 18 hours 37° C., read-out: MIC
[20] = Staph. aureus Russell, nutrient agar 5% chocolated horse blood, 18 hours 37° C., read-out: MIC

Row | SMILES | MIC (M. suipneumoniae JF 435) [mg/L] | MIC (M. suipneumoniae HR(2)) [mg/L] | MIC [1] [mg/L] | MIC (M. suipneumoniae OCD 1) [mg/L] | MIC [2] [mg/L] | MIC [3] [mg/L] | MIC (M. hyorhinis ATCC 25021) [mg/L] | MIC [4] [mg/L] | MIC (M. bovis RCTC 10131) [mg/L] | MIC (Bacillus subtilis 6633; [11]) [mg/L] | MIC [5, 12] [mg/L] | MIC (E. Coli NCTC 10418; [13]) [mg/L] | MIC [6] [mg/L] | MIC (K. aerogenes A; [14]) [mg/L] | MIC [7, 15] [mg/L] | MIC (P. mirabilis 889; [16]) [mg/L] | MIC [8] [mg/L] | MIC [9, 17] [mg/L] | MIC (Strep. faecalis 1) [mg/L] | MIC [10] [mg/L] | other results
1 | C/C(=C\C(=O)OCc1cccc([N+](=O)[O-])c1)CC1OCC(C/C=C/C(C)C(C)O)C(O)C1O (stereo not shown) [Example 5, m-nitrobenzyl monate C] | 0.25 (≈ 0.539 µM) | 0.25 (≈ 0.539 µM) | 0.1 (≈ 0.216 µM) | 0.25 (≈ 0.539 µM) | 0.25 (≈ 0.539 µM) | 0.25 (≈ 0.539 µM) | 0.25 (≈ 0.539 µM) | 0.25 (≈ 0.539 µM) | 0.1 (≈ 0.216 µM) | 1 (≈ 2.16 µM) | > 100 | > 100 | 1 (≈ 2.16 µM) | > 100 | 1 (≈ 2.16 µM) | > 100 | 25 (≈ 53.9 µM) | > 100 | > 100 | 1 (≈ 2.16 µM) | MIC (E. Coli E1; E. Coli E1, DST Agar, 10^4 organisms, 18 hours 37° C., read-out: MIC): > 80 mg/L; MIC (E. coli ESS; E. coli ESS, nutrient agar 5% chocolated horse blood, 18 hours 37° C., read-out: MIC): 10 mg/L (≈ 21.6 µM); MIC (Sarcina lutea 8340; [18]): > 100 mg/L; MIC (Staph. aureus Oxford; [19]): 2.5 mg/L (≈ 5.39 µM); MIC (Staph. aureus Russell; [20]): 2.5 mg/L (≈ 5.39 µM); MIC (Staph. aureus W2827; W2827, 18 h): 5 mg/L (≈ 10.8 µM)
2 | C/C(=C\C(=O)OCc1cccc([N+](=O)[O-])c1C)CC1OCC(CC2OC2C(C)C(C)O)C(O)C1O (stereo not shown) [Example 8, 2-methyl-3-nitrobenzyl monate A] | 0.1 (≈ 0.203 µM) | 0.1 (≈ 0.203 µM) | 0.1 (≈ 0.203 µM) | – | 0.1 (≈ 0.203 µM) | 0.1 (≈ 0.203 µM) | 0.1 (≈ 0.203 µM) | – | < 0.01 | 0.25 (≈ 0.507 µM) | > 100 | > 100 | 0.5 (≈ 1.01 µM) | > 100 | 0.25 (≈ 0.507 µM) | > 100 | 2.5 (≈ 5.07 µM) | > 100 | 50 (≈ 101 µM) | 0.25 (≈ 0.507 µM) | MIC (M. suipneumoniae OCD 1; M. suipneumoniae OCD 1, in vitro, 6 days 37° C., read-out: MIC): 0.25 mg/L (≈ 0.507 µM); MIC ([4]; M. hyosynoviae ATOC 25591, in vitro, 6 days 37° C., read-out: MIC): 0.05 mg/L (≈ 0.101 µM); MIC (E. Coli E1; 18 h): > 80 mg/L; MIC (E. coli ESS; 18 h): 1 mg/L (≈ 2.03 µM); MIC (Sarcina lutea 8340; [18]): > 100 mg/L; MIC (Staph. aureus Oxford; [19]): 2.5 mg/L (≈ 5.07 µM); MIC (Staph. aureus Russell; [20]): 2.5 mg/L (≈ 5.07 µM); MIC (Staph. aureus W2827; Staph. aureus W2827, nutrient agar 5% chocolated horse blood, 18 hours 37° C., read-out: MIC): 2.5 mg/L (≈ 5.07 µM); MIC (Strep. pneumoniae CN33): 0.5 mg/L (≈ 1.01 µM)
3 | C/C(=C\C(=O)OCc1ccc([N+](=O)[O-])cc1Cl)CC1OCC(CC2OC2C(C)C(C)O)C(O)C1O (stereo not shown) [Example 11, 2-chloro-4-nitrobenzyl monate A] | 2.5 (≈ 4.86 µM) | 2.5 (≈ 4.86 µM) | 1 (≈ 1.95 µM) | 2.5 (≈ 4.86 µM) | 1 (≈ 1.95 µM) | 1 (≈ 1.95 µM) | 0.5 (≈ 0.973 µM) | 0.1 (≈ 0.195 µM) | 0.025 (≈ 0.0486 µM) | – | – | – | 2.5 (≈ 4.86 µM) | – | – | – | 5 (≈ 9.73 µM) | – | 50 (≈ 97.3 µM) | 1 (≈ 1.95 µM) | MIC (M. pneumoniae ATCC 15492): 2.5 mg/L (≈ 4.86 µM); MIC (E. Coli E1; 18 h): 80 mg/L (≈ 156 µM); MIC (Bacillus subtilis 6633; Bacillus subtilis, 6633, 18 h): 0.5 mg/L (≈ 0.973 µM); MIC ([5]; Corynebacterium xerosis, 9755, 18 h): > 100 mg/L; MIC (E. Coli NCTC 10418; NCTC10418, 18 h): > 100 mg/L; MIC (K. aerogenes A; 18 h): > 100 mg/L; MIC ([7]; Neisseria, 1502, 18 h): 0.5 mg/L (≈ 0.973 µM); MIC (P. mirabilis 889; Proteus mirabilis, 889, 18 h): > 100 mg/L; MIC ([9]; NCTC10662, 18 h): > 100 mg/L; MIC (Sarcina lutea 8340; Micrococcus luteus, 8340, 18 h): > 100 mg/L; MIC (Staph. aureus Oxford; 18 h): 1 mg/L (≈ 1.95 µM); MIC (Staph. aureus Russell; 18 h): 1 mg/L (≈ 1.95 µM); MIC (Staph. aureus W2827; W2827, 18 h): 1 mg/L (≈ 1.95 µM)

From patent US4436751A, “Nitrobenzyl monates antibacterial compounds” (Beecham Group Limited, priority 1980, dated 1984)
